The text below walks through data of US20130210061A1, “Method of Screening Damp-Dry Malodor Inhibitor and Method of Evaluating Damp-Dry Malodor Inhibitor” (KAO CORPORATION, priority 2010, published 2013).

Experiment in all cases: Example 1: quantification of 4M3H on cotton fabric with 14-methylhexadecanoic acid
The subject of test [1] is S. cerevisiae NBRC1661. In kind it is cell-based, Saccaromyces cerevisiae. The note with it: 100 ppm test substance, 37° C., 24 hours, vs sterilized water. The protocol: (§1) 10 mL of methanol was added to the towel that had been left to stand still for 24 hours, and 1 mL of the methanol was mixed with 1 mL of ADAM (9-anthrydiazomethanene, manufactured by Funakoshi Corp., 0.1 w/v %). The mixture was left to stand for 60 minutes at room temperature, and thus derivatization was carried out.
(§2) Thereafter, 10 μL of the solution was analyzed by using LC-FL (liquid chromatography apparatus: HITACHI ELITE LaChrom (trade name, manufactured by Hitachi, Ltd.), column: Lichrosphere 100 RP-8(e) (trade name, manufactured by Agilent Technologies, Inc., 5 μm×125 mm×4 mmφ), column temperature: 40° C., eluent a mixed solution of acetonitrile/water=7/3 (volume ratio), flow rate: 1.0 mL/min, detector: excitation wavelength (365 nm), measurement wavelength (412 nm)), and thereby quantification of 4M3H thus produced was carried out. In regard to the amount of production of 4M3H, a sample which produced 4M3H in an amount of more than 1 μg was rated as “[…]”; a sample which produced 4M3H in an amount of more than 0.1 μg and 1 μg or less was rated as “∘”; a sample which produced 4M3H in an amount of more than 0 μg and 0.1 μg or less was rated as “Δ”; and a sample in which no 4M3H was detected was rated as “x”.
(§3) One platinum loop of each of Moraxella osloensis NCIMB10693, Moraxella sp. 4-1, Psychrobacter pacificensis NBRC103191, Psychrobacter glacincola NCIMB101053, Pseudomonas alcaligenes No. 41, Acinetobacter calcoaceticus HH2BD-49, Saccaromyces cerevisiae NBRC1661, Rhodotorula mucilaginosa NBRC0909 and Rhodotorula slooffiae 13c was inoculated into 5 mL of a SCD liquid medium (manufactured by Nihon Pharmaceutical Co., Ltd.), and the microbial cells were subjected to shaking culture (160 rpm) at 35° C. for 24 hours. The microbial cells obtained after culture were centrifuged (8000×g, 10 minutes), the supernatant was removed, and then the microbial cells were suspended in 5 mL of physiological saline. The suspension was centrifuged again (8000×g, 10 minutes), subsequently the supernatant was removed, and a microbial suspension was prepared by using physiological saline such that the OD600 would be 0.1.
(§4) Furthermore, 0.1 mL each of 10-ppm or 100-ppm aqueous solutions of the compounds shown in the following Table 6 was applied on the fabric described above. As a control, a fabric on which sterilized water was applied instead of the compounds described below was also prepared.
(§5) On a plain-woven cotton fabric prepared as described above, 0.1 mL each of the various microbial suspensions was inoculated, and the samples were left to stand still under humidified conditions at 37° C. for 24 hours and were subjected to an evaluation such as described below.
(§6) Quantification of 4M3H was carried out by the same method as that used in Test Example 3, and by taking as a reference the 4M3H production amount of a sample on which sterilized water was applied as a test substance, the 4M3H production amounts in the case of applying other test substances were evaluated on the basis of the following criteria. • A: (4M3H production amount in the case of applying a test substance)<( 1/100 of the 4M3H production amount in the case of applying sterilized water) • B: ( 1/100 of the 4M3H production amount in the case of applying sterilized water)≦(4M3H production amount in the case of applying a test substance)<( 1/10 of the 4M3H production amount in the case of applying sterilized water) • C: ( 1/10 of the 4M3H production amount in the case of applying sterilized water)≦(4M3H production amount in the case of applying a test substance)<(4M3H production amount in the case of applying sterilized water) • D: (4M3H production amount in the case of applying sterilized water)≦(4M3H production amount in the case of applying a test substance)

In test [2] the test system is P. alcaligenes No. 41. In kind it is cell-based, Pseudomonas alcaligenes. The settings on record: 100 ppm test substance, 37° C., 24 hours, vs sterilized water. The protocol: as §1, §2, §3, §4, §5, §6
Test [3] has as its system P. glacincola NBRC101053. In kind it is cell-based, Psychrobacter glacincola. The settings on record: 100 ppm test substance, 37° C., 24 hours, vs sterilized water. The procedure: as §1, §2, §3, §4, §5, §6
In test [4] the test system is Moraxella sp. 4-1. The test is classed as cell-based. The note with it: 100 ppm test substance, 37° C., 24 hours, vs sterilized water. The protocol: as §1, §2, §3, §4, §5, §6
The test system of test [5] is R. slooffiae 13c. The test is classed as cell-based, Rhodotorula slooffiae. The settings on record: 100 ppm test substance, 37° C., 24 hours, vs sterilized water. The protocol:
as §1, §2, §3, §4, §5, §6

Test [6] concerns A. calcoaceticus HH2BD-49. In kind it is cell-based, Acinetobacter calcoaceticus. The note with it: 100 ppm test substance, 37° C., 24 hours, vs sterilized water. The procedure:
as §1, §2, §3, §4, §5, §6

In test [7] the test system is M. osloensis NCIMB10693. In kind it is cell-based, Moraxella osloensis. The note with it: 100 ppm test substance; M. osloensis NCIMB10693; cotton fabric with 14-methylhexadecanoic acid; 37° C., 24 hours; vs sterilized water. The procedure: as §1, §2, §3, §4, §5, §6
For test [8], the system named is P. pacificensis NBRC103191. In kind it is cell-based, Psychrobacter pacificensis. The settings on record: 100 ppm test substance, 37° C., 24 hours, vs sterilized water. The protocol:
as §1, §2, §3, §4, §5, §6

The test system of test [9] is R. muculaginosa NBRC0909. The test is classed as cell-based, Rhodotorula mucilaginosa. The settings on record: 100 ppm test substance, 37° C., 24 hours, vs sterilized water. The protocol:
as §1, §2, §3, §4, §5, §6

As for Alkyl benzyl dimethyl ammonium chloride, the “Production amount of 4M3H” value in test [1] is “C (( 1/10 of the 4M3H production amount in the case of applying sterilized water)≦(4M3H production amount in the case of applying a test substance)<(4M3H production amount in the case of applying sterilized water))”; in [2], “D ((4M3H production amount in the case of applying sterilized water)≦(4M3H production amount in the case of applying a test substance))”; in test [3], “C (( 1/10 of the 4M3H production amount in the case of applying sterilized water)≦(4M3H production amount in the case of applying a test substance)<(4M3H production amount in the case of applying sterilized water))”; in test [4], “D ((4M3H production amount in the case of applying sterilized water)≦(4M3H production amount in the case of applying a test substance))”; in test [5], “D ((4M3H production amount in the case of applying sterilized water)≦(4M3H production amount in the case of applying a test substance))”; in test [6] it was “D ((4M3H production amount in the case of applying sterilized water)≦(4M3H production amount in the case of applying a test substance))”. Moreover, the “Production amount of 4M3H” value in test [7], in test [8] and in test [9] was “D ((4M3H production amount in the case of applying sterilized water)≦(4M3H production amount in the case of applying a test substance))” throughout.
